Experimental data published in patent publication US12306176B2, “Microfluidic bi-directional migration assay” (Ohio State Innovation Foundation, priority 2017, dated 2025).

Tests used:
MDA-MB-231 cells = assay: F-actin polarization ratio in the MBDM assay; format: cell-based, human; settings: EGF gradient, absence of iEFs (untreated 0.34)
Protocol: This section reports on the effects of iEFs on the distribution of F-actin in cells migrating along the microtracks of the MBDM assay. To quantify the distribution of F-Actin, a quantity referred to herein as the polarization ratio (PR) was introduced, which has values between 0 and 1.
Cells in the devices were fixed in 3.7 (wt/wt) paraformaldehyde solution for 30 minutes. They were subsequently washed with 1×PBS three times. For F-actin labeling, we blocked the cells for 60 minutes in blocking buffer (0.1% Triton-X and 5% donkey serum in 1×PBS). Cells were then treated with Alexa Fluoro® 488-conjugated or 555-conjugated phalloidin for 60 minutes (1:40, ThermoFisher), again followed by a 1×PBS wash (three times, 10 minutes each). […]
Actin immunofluorescence images were acquired using a Nikon TE200 epifluorescence microscope (Nikon Instruments Inc.) under a 20× objective. The immunofluorescence images were quantified using custom MATLAB scripts. The custom MATLAB script calculated the geometric center for an individual cell, i.e. the arithmetic mean of the locations of all pixels comprising the cell area. Then the distance from this geometric center and angle (0°≤θ≤360°) of every pixel relative to a horizontal axis (θ=0°) was calculated. […] A moment of intensity is calculated for individual pixels and this value is summed for all the pixels in every individual sector. […]

EGFR = assay: Western blot of EGFR phosphorylation (Tyr-1068); format: cell-based, human; settings: EGF 25 ng/mL, absence of iEFs, 12 hours
Protocol: For these experiments, 1×10^6 cells/well were plated in 6-well plates in growth media for 12 hours followed by migration media for another 12 hours. Fresh migration media was added to the top three wells in each plate (1, 2, 3) while EGF (25 ng/mL) and supplemental migration media were added to the bottom three wells (4, 5, 6). One of the cell-containing 6-well plates was then treated with iEFs for 12 hours. Immediately after treatment, the plates were placed on ice and each well was then washed three times with 1× tris-buffered saline (TBS, Corning Inc.) solution. TBS was aspirated out and 1 mL ice-cold radioimmunoprecipitation assay (RIPA) buffer, supplemented with a protease inhibitor and a phosphatase inhibitor, was added to each well. Cells were scraped out using a cold plastic cell scraper and the cell suspension was transferred into a pre-cooled microcentrifuge tube. The cell suspension was then spun at 16000 g for 20 minutes in a 4° C. precooled centrifuge. The centrifuge tubes were placed on ice and the supernatants were transferred to fresh tubes and kept on ice. The pellet at the bottom of each microcentrifuge tube was discarded. Protein in each tube was estimated against a standard bovine serum albumin (BSA) solution (1.42 mg/mL) using the DCTM Protein Assay Kit II (Bio-Rad, 500-0112). […]

Substance: epidermal growth factor [EGF]
- center of the F-actin polarization ratio (PR) distribution (MDA-MB-231 cells): 0.62
- EGFR phosphorylation (EGFR): resulted in EGFR phosphorylation
